Target: T1, NanR (Escherichia coli, UniProt P0A8W0)
T1 construct: crystals by in situ chymotrypsin proteolysis
T1 sequence (P0A8W0 1-263): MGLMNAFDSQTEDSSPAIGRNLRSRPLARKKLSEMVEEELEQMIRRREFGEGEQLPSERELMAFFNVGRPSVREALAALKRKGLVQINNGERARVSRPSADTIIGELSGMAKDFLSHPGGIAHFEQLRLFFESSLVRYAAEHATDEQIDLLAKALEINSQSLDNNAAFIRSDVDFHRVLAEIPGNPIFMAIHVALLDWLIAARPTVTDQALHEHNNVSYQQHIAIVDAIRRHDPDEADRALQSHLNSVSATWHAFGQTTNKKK
Assay: isothermal titration calorimetry
Settings: 20 mM Tris-HCl pH 8.0, 150 mM NaCl; 8 °C; no DNA; Zn2+-loaded protein; effector-binding domain; allosteric

Kd: 16 µM
SMILES: CC(=O)N[C@H]1[C@H]([C@H](O)[C@H](O)CO)OC(O)(C(=O)O)C[C@@H]1O (stereo partly shown) [Neu5Ac]

Source: publication PMC8012715, “Mechanism of NanR gene repression and allosteric induction of bacterial sialic acid metabolism” (Nature Communications, 2021)
